Measurements published in US11084800B2 (Achillion Pharmaceuticals, Inc., priority 2017, dated 2021).
pIC50: −log10 of the molar value.

molecular target: Human Factor D (Homo sapiens (Human), UniProt P00746); test: Human Factor D Assay; type: biochemical; details: Factor D inhibition, assay of Example 10; read-out: IC5 (Stars)
Procedure, shortened: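 Serum-purified Factor D (80 nM final) preincubated 5 min at room temperature with compound in 50 mM Tris, 1 M NaCl, pH 7.5. Z-L-Lys-SBz and DTNB added at 100 μM each; A405 followed every 30 s for 30 min. IC50 from nonlinear regression of rates versus concentration.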

Human Factor D, sequence (P00746 26-253): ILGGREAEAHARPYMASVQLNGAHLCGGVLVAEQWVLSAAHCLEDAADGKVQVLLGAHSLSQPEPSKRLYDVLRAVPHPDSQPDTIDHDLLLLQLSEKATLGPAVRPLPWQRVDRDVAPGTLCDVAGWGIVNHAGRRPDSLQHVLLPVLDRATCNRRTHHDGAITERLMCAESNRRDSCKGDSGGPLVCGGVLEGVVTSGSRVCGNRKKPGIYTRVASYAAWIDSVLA

SMILES | pIC50
CC(=O)c1nn(CC(=O)N2[C@H](C(=O)Nc3nc(Br)ccc3C)C[C@@]3(Cc4nc(C)no4)C[C@@H]23)c2c(C)cc(-c3cnc(C)nc3)cc12 [Compound 372, (1R,3S,5R)-2-(2-(3-acetyl-7-methyl-5-(2-methylpyrimidin-5-yl)-1H-indazol-1-yl)acetyl)-N-(6-bromo-3-methylpyridin-2-yl)-5-((3-methyl-1,2,4-oxadiazol-5-yl)methyl)-2-azabicyclo[3.1.0]hexane-3-carboxamide] | > 6.00
CC(=O)c1nn(CC(=O)N2[C@H](C(=O)Nc3nc(Br)ccc3C)C[C@@]3(C)C[C@@H]23)c2cc(C)c(-c3cnc(C)nc3)cc12 [Compound 373, (1R,3S,5R)-2-(2-(3-acetyl-6-methyl-5-(2-methylpyrimidin-5-yl)-1H-indazol-1-yl)acetyl)-N-(6-bromo-3-methylpyridin-2-yl)-5-methyl-2-azabicyclo[3.1.0]hexane-3-carboxamide] | > 6.00
CC(=O)c1nn(CC(=O)N2[C@H](C(=O)Nc3nc(Br)ccc3C)C[C@@]3(CCN(C)C)C[C@@H]23)c2c(CF)cc(-c3cnc(C)nc3)cc12 [Compound 377, (1R,3S,5R)-2-(2-(3-acetyl-7-(fluoromethyl)-5-(2-methylpyrimidin-5-yl)-1H-indazol-1-yl)acetyl)-N-(6-bromo-3-methylpyridin-2-yl)-5-(2-(dimethylamino)ethyl)-2-azabicyclo[3.1.0]hexane-3-carboxamide] | > 6.00
CC(=O)c1nn(CC(=O)N2[C@H](C(=O)Nc3nc(Br)ccc3C)C[C@@]3(CCCCN(C)C)C[C@@H]23)c2c(CF)cc(-c3cnc(C)nc3)cc12 [Compound 378, (1R,3S,5R)-2-(2-(3-acetyl-7-(fluoromethyl)-5-(2-methylpyrimidin-5-yl)-1H-indazol-1-yl)acetyl)-N-(6-bromo-3-methylpyridin-2-yl)-5-(4-(dimethylamino)butyl)-2-azabicyclo[3.1.0]hexane-3-carboxamide] | > 6.00
CC(=O)c1nn(CC(=O)N2[C@H](C(=O)Nc3nc(C(F)(F)F)ccc3C)C[C@@]3(CCCN(C)C)C[C@@H]23)c2c(CF)cc(-c3cnc(C)nc3)cc12 [Compound 380, (1R,3S,5R)-2-(2-(3-acetyl-7-(fluoromethyl)-5-(2-methylpyrimidin-5-yl)-1H-indazol-1-yl)acetyl)-5-(3-(dimethylamino)propyl)-N-(3-methyl-6-(trifluoromethyl)pyridin-2-yl)-2-azabicyclo[3.1.0]hexane-3-carboxamide] | > 6.00
CC(=O)c1nn(CC(=O)N2[C@H](C(=O)Nc3nc(Br)ccc3C)C[C@@]3(COC(F)F)C[C@@H]23)c2cnc(-c3cnc(C)nc3)cc12 [Compound 384, (1R,3S,5S)-2-(2-(3-Acetyl-5-(2-methylpyrimidin-5-yl)-1H-pyrazolo[3,4-c]pyridin-1-yl)acetyl)-N-(6-bromo-3-methylpyridin-2-yl)-5-((difluoromethoxy)methyl)-2-azabicyclo[3.1.0]hexane-3-carboxamide] | > 6.00
CC(=O)c1nn(CC(=O)N2[C@H](C(=O)Nc3nc(Br)ccc3Cl)C[C@@]3(C)C[C@@H]23)c2ccc(-c3cnc(C)nc3)cc12 [Compound 386, (1R,3S,5R)-2-(2-(3-acetyl-5-(2-methylpyrimidin-5-yl)-1H-indazol-1-yl)acetyl)-N-(6-bromo-3-chloropyridin-2-yl)-5-methyl-2-azabicyclo[3.1.0]hexane-3-carboxamide] | > 6.00
CC(=O)c1nn(CC(=O)N2C[C@H]3C[C@H]3[C@H]2C(=O)Nc2nc(Br)ccc2C)c2c(C(C)C)nc(-c3cnc(C)nc3)cc12 [Compound 388, (1R,25,5S)-3-(2-(3-acetyl-7-isopropyl-5-(2-methylpyrimidin-5-yl)-1H-pyrazolo[3,4-c]pyridin-1-yl)acetyl)-N-(6-bromo-3-methylpyridin-2-yl)-3-azabicyclo[3.1.0]hexane-2-carboxamide] | > 6.00
Cc1ncc(-c2ccc3c(c2)c(C(=O)c2ncc[nH]2)nn3CC(=O)N2[C@H](C(=O)Nc3nc(Br)ccc3C)C[C@@]3(C)C[C@@H]23)cn1 [Compound 389, (1R,3S,5R)-2-(2-(3-(1H-Imidazole-2-carbonyl)-5-(2-methylpyrimidin-5-yl)-1H-indazol-1-yl)acetyl)-N-(6-bromo-3-methylpyridin-2-yl)-5-methyl-2-azabicyclo[3.1.0]hexane-3-carboxamide] | < 5.00
CC(=O)c1nn(CC(=O)N2C[C@H]3C[C@H]3[C@H]2C(=O)Nc2nc(Br)c(F)cc2C)c2c(C)nc(-c3cnc(C)nc3)cc12 [Compound 393, (1R,2S,5S)-3-(2-(3-acetyl-7-methyl-5-(2-methylpyrimidin-5-yl)-1H-pyrazolo[3,4-c]pyridin-1-yl)acetyl)-N-(6-bromo-5-fluoro-3-methylpyridin-2-yl)-3-azabicyclo[3.1.0]hexane-2-carboxamide] | > 6.00
COc1cc2c(cc1-c1cnc(C)nc1)c(C(C)=O)nn2CC(=O)N1[C@H](C(=O)Nc2nc(Br)ccc2C)C[C@@]2(C)C[C@@H]12 [Compound 394, (1R,3S,5R)-2-(2-(3-acetyl-6-methoxy-5-(2-methylpyrimidin-5-yl)-1H-indazol-1-yl)acetyl)-N-(6-bromo-3-methylpyridin-2-yl)-5-methyl-2-azabicyclo[3.1.0]hexane-3-carboxamide] | > 6.00
COC(=O)c1cc2c(cc1-c1cnc(C)nc1)c(C(C)=O)nn2CC(=O)N1[C@H](C(=O)Nc2nc(Br)ccc2C)C[C@@]2(C)C[C@@H]12 [Compound 395, methyl 3-acetyl-1-(2-((1R,3S,5R)-3-((6-bromo-3-methylpyridin-2-yl)carbamoyl)-5-methyl-2-azabicyclo[3.1.0]hexan-2-yl)-2-oxoethyl)-5-(2-methylpyrimidin-5-yl)-1H-indazole-6-carboxylate] | > 6.00

same assay, conditions: Table 8; Factor D 80 nM, substrate Z-L-Lys-SBz; read-out: IC50

SMILES | pIC50
COC(=O)CCCCCCCCCCCCCCCCC(=O)N[C@@H](CCC(=O)NCCOCCOCC(=O)NCCOCCOCC(=O)NC[C@@]12C[C@@H](C(=O)Nc3nc(Br)ccc3C)N(C(=O)Cn3nc(C(C)=O)c4cc(-c5cnc(C)nc5)cc(C)c43)[C@@H]1C2)C(=O)OC [Compound 391, Methyl (S)-1-((1R,3S,5R)-2-(2-(3-acetyl-7-methyl-5-(2-methylpyrimidin-5-yl)-1H-indazol-1-yl)acetyl)-3-((6-bromo-3-methylpyridin-2-yl)carbamoyl)-2-azabicyclo[3.1.0]hexan-5-yl)-24-(methoxycarbonyl)-3,12,21,26-tetraoxo-5,8,14,17-tetraoxa-2,11,20,25-tetraazatritetracontan-43-oate] | > 6.00
CC(=O)c1nn(CC(=O)N2[C@H](C(=O)Nc3nc(Br)ccc3C)C[C@@]3(CNC(=O)COCCOCCNC(=O)COCCOCCNC(=O)CC[C@H](NC(=O)CCCCCCCCCCCCCCCCC(=O)O)C(=O)O)C[C@@H]23)c2c(C)cc(-c3cnc(C)nc3)cc12 [Compound 392, (S)-1-((1R,3S,5R)-2-(2-(3-Acetyl-7-methyl-5-(2-methylpyrimidin-5-yl)-1H-indazol-1-yl)acetyl)-3-((6-bromo-3-methylpyridin-2-yl)carbamoyl)-2-azabicyclo[3.1.0]hexan-5-yl)-24-carboxy-3,12,21,26-tetraoxo-5,8,14,17-tetraoxa-2,11,20,25-tetraazatritetracontan-43-oic acid] | > 6.00
